In patent publication US7112683B2, “Cyclic sulfone containing retroviral protease inhibitors” (priority 1992, dated 2006) one finds IC50, EC50 and TD50 data, which are given here for 5 compounds.

In one data set the target is HIV protease (Human immunodeficiency virus type 1 group M subtype B, UniProt P04585). Nature of the data set: HIV protease enzyme assay (fluorogenic substrate 2-aminobenzoyl-Ile-Nle-Phe(p-NO2)-Gln-ArgNH2). In kind it is biochemical. The protocol: The compounds of the present invention are effective HIV protease inhibitors. […] The calculated IC50 indicates the concentration providing inhibition of 50%, i.e., the concentration at which the inhibitor compound reduces enzyme activity by 50%). The enzyme method is described below. The substrate is 2-aminobenzoyl-Ile-Nle-Phe(p-NO2)-Gln-ArgNH2. The positive control is MVT-101 [Miller, M. et al, Science, 246, 1149 (1989)]. The assay conditions are as follows: • Assay buffer: 20 mM sodium phosphate, pH 6.4 • 20% glycerol • 1 mM EDTA • 1 mM DTT • 0.1% CHAPS
The above described substrate is dissolved in DMSO, then diluted 10 fold in assay buffer. Final substrate concentration in the assay is […].
HIV protease is diluted in the assay buffer to a final concentration of glycerol is 18%. The test compound is dissolved in DMSO and diluted in DMSO to 10× the test concentration; […] of the enzyme preparation is added, the materials mixed and then the mixture is incubated at ambient temperature for 15 minutes. The enzyme reaction is initiated by the addition of […] of substrate. The increase in fluorescence is monitored at 4 time points (0, 8, 16 and 24 minutes) at ambient temperature. Each assay is carried out in duplicate wells.

The test system of the next data set is HIV. Nature of the data set: EC50 of Table 1 (antiviral activity, method not described). Format: cell-based.
Data set [1] is described as follows: TD50 of Table 1 (toxic dose, method not described).
The mark [2] stands for this setting: IC50 (range given for the listed examples), inhibition of the HIV enzyme, range over Examples 4, 4a, 7, 8 and 9.
The mark [3] stands for this setting: IC50, HIV protease, pH 6.4, ambient temperature.
[4] abbreviates: HIV protease, pH 6.4, ambient temperature, read-out: IC50.

Like-named read-outs stand apart in the source and are kept apart here.

On to `CC(C)CCN(C[C@@H](O)[C@H](Cc1ccccc1)NC(=O)C1CCCS(=O)(=O)C1)C(=O)NC(C)(C)Cn1ccnc1` (some centres unmarked) [Example 4a], for which the IC50 was 3 to 140 nM against HIV protease (setting [2]) and 46 nM against HIV protease (setting [3]).

Take “2H-thiopyran-3-carboxamide, N-(3-[[[(1,1-dimethylethyl amino]-carbonyl](3-methylbutyl) amino]-2-hydroxy-1-(phenylmethyl) propyl]tetrahydro,-1,1-dioxide. [Example 4]”: the EC50 in the data set on HIV came out at 63 nM. In addition, the TD50 in data set [1] is listed as 308,000 nM. At HIV protease (setting [4]), the IC50 came to 13 nM.

As to `CC(C)(C)NC(=O)[C@@H]1C[C@@H]2CCCC[C@@H]2CN1C[C@@H](O)[C@H](Cc1ccccc1)NC(=O)C1CCCS(=O)(=O)C1` (some centres unmarked) [Example 7], the IC50 against HIV protease (setting [2]) is 3 to 140 nM; on HIV protease (setting [3]), 3 nM.

`CC(C)CN(CC(O)C(Cc1ccccc1)NC(=O)C1CCCS(=O)(=O)C1)S(=O)(=O)NC(C)(C)C` (centres unmarked) [Example 9]: the IC50 at HIV protease (setting [4]) was 140 nM; on HIV protease (inhibition of the HIV enzyme, range over Examples 4, 4a, 7, 8 and 9, read-out: IC50 (range given for the listed examples)), 3 to 140 nM.

On to `CC(C)CCN(C[C@@H](O)[C@H](Cc1ccccc1)NC(=O)C1CCCS(=O)(=O)C1)S(=O)(=O)c1ccccc1` (some centres unmarked) [Example 8], for which the IC50 was 3 to 140 nM against HIV protease (setting [2]) and 4 nM at HIV protease (setting [3]).
